In ChEMBL document CHEMBL1146729, “Rational design and synthesis of novel heparan sulfate mimetic compounds as antiadhesive agents” (Bioorg Med Chem Lett, 2004):

Columns and labels:
Prothrombin = Prothrombin (Homo sapiens, UniProt P00734); experiment: Compound (100 uM) was tested for inhibitory activity against thrombin; No inhibition
[1] = molecular target: Matrix metalloproteinase-9 (Homo sapiens, UniProt P14780); experiment: Inhibition of matrix metalloprotease-9 at 100 uM (inactive)
HeLa [2] = experiment: Compound (100 uM) was tested for percent inhibition against adhesion of human HeLa cells; No inhibition; assay type: functional, cell-based
HT-1080 [3] = experiment: Compound (100 uM) was tested for percent inhibition against adhesion of human HT1080 cells; No inhibition; assay type: functional, cell-based
[4] = molecular target: 72 kDa type IV collagenase (Homo sapiens, UniProt P08253); experiment: Inhibition of matrix metalloprotease-2 at 100 uM (inactive)
Coagulation factor X = Coagulation factor X (Homo sapiens, UniProt P00742); experiment: Inhibition of Coagulation factor X at 100 uM; No inhibition
Heparanase [5] = molecular target: T1, Heparanase (Homo sapiens, UniProt Q9Y251); experiment: Inhibitory concentration against heparanase; No inhibition
T1 sequence (Q9Y251 whole entry): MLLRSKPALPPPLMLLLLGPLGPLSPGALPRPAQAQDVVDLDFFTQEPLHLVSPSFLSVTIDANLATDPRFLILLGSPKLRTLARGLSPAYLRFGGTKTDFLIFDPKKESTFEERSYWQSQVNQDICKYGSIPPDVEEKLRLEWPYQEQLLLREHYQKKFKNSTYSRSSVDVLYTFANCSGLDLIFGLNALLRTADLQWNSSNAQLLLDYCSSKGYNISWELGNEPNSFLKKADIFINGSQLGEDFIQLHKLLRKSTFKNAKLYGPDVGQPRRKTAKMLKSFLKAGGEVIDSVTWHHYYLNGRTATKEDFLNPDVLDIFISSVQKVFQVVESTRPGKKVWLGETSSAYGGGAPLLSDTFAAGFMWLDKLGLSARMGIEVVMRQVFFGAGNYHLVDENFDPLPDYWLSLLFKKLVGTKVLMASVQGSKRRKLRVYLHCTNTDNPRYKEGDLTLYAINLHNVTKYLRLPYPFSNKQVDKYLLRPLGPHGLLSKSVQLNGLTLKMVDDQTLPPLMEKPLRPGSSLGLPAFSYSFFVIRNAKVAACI

Serine protease 1 = Serine protease 1 (Homo sapiens, UniProt P07477); experiment: Inhibitory activity against trypsin at 100 uM; No inhibition
Collagenase ColA = molecular target: T2, Collagenase ColA (Bacteria, UniProt P43153); experiment: Inhibition of collagenase at 100 uM (No inhibition); design: species or system Hathewaya histolytica
T2 sequence (P43153 whole entry): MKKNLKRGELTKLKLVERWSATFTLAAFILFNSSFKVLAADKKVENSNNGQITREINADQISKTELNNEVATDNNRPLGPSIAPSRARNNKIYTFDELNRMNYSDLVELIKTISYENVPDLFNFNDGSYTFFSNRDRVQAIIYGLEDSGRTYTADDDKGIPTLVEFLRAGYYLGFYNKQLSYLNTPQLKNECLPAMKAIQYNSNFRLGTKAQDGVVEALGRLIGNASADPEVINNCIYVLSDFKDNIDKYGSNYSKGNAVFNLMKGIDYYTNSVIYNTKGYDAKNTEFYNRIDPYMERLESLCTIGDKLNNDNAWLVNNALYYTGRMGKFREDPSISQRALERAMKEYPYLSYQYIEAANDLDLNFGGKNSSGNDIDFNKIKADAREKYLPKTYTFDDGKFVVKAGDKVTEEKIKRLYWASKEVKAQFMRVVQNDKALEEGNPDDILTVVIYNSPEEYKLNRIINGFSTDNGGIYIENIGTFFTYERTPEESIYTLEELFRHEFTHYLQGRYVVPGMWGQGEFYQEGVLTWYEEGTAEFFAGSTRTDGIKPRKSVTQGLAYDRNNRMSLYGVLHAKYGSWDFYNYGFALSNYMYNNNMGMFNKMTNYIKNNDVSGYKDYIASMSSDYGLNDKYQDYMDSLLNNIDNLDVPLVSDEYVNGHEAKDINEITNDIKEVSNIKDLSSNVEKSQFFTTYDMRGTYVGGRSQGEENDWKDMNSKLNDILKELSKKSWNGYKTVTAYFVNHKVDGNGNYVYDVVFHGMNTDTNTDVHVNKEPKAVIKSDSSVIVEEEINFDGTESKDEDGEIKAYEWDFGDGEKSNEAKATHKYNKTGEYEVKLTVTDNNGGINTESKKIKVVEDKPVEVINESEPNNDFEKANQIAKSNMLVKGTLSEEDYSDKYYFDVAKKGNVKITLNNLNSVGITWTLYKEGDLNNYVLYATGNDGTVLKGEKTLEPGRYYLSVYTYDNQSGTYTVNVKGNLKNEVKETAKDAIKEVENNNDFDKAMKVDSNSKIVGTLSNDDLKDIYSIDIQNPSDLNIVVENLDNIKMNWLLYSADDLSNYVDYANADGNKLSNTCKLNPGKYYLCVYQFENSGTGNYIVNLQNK

Integrin alpha-5/beta-1 [6] = molecular target: T3, Integrin alpha-5/beta-1 (Homo sapiens, UniProt P05556+P08648); experiment: Inhibition of human HeLa cell adhesion to fibronectin; assay type: functional, cell-based
HT-1080 [7] = experiment: Compound was tested for inhibitory activity against migration of human HT1080 cells; assay type: functional, cell-based
HT-1080 [8] = experiment: Compound was tested for inhibitory activity against adhesion of human collagen IV/HT1080 cell; assay type: functional, cell-based
HT-1080 [9] = experiment: Compound was tested for inhibitory activity against growth of human HT1080 cells; assay type: functional, cell-based
HT-1080 [10] = experiment: Compound was tested for inhibitory activity against invasion of human HT1080 cells; assay type: functional, cell-based
HT-1080 [11] = experiment: Compound (100 uM) was tested for percent inhibition against adhesion of human HT1080 cells; assay type: functional
HT-1080 [12] = experiment: Compound was tested for inhibitory activity against adhesion of human laminin/HT1080 cells; assay type: functional, cell-based
HeLa [13] = experiment: Compound (100 uM) was tested for percent inhibition against adhesion of human HeLa cells; assay type: functional
HT-1080 [14] = experiment: Compound was tested for inhibitory activity against adhesion of human Plastic/HT1080 cells; assay type: functional, cell-based
Integrin alpha-5/beta-1 [15] = molecular target: T3, Integrin alpha-5/beta-1; experiment: Inhibition of human A431 cell adhesion to fibronectin; assay type: functional, cell-based, A-431
Integrin alpha-5/beta-1 [16] = molecular target: T3, Integrin alpha-5/beta-1; experiment: Inhibition of human HT1080 cell adhesion to fibronectin; assay type: functional, cell-based, HT-1080
Heparanase [17] = molecular target: T1, Heparanase; experiment: Compound was tested for inhibitory activity against heparanase

Sequence of Coagulation factor X (P00742 41-179 limits assumed): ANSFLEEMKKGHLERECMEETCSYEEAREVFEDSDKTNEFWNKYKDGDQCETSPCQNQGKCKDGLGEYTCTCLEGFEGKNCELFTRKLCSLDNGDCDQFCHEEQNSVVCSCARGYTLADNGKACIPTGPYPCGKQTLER
Sequence of Coagulation factor X (P00742 235-488 limits assumed): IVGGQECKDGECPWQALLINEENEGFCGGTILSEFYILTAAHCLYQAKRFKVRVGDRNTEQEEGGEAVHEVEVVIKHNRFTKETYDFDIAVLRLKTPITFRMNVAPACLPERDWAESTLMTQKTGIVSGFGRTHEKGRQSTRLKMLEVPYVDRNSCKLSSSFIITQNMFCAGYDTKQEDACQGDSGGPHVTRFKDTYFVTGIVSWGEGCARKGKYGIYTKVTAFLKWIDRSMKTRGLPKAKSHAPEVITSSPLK
Sequence of Serine protease 1 (P07477 whole entry): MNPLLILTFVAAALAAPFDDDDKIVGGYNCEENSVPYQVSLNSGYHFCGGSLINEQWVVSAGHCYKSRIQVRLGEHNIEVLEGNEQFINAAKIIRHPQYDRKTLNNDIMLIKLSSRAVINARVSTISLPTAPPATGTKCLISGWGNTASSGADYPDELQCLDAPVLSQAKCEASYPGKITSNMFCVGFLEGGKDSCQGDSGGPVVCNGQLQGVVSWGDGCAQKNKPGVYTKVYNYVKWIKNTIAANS
T3 sequence (P05556 21-798 limits assumed): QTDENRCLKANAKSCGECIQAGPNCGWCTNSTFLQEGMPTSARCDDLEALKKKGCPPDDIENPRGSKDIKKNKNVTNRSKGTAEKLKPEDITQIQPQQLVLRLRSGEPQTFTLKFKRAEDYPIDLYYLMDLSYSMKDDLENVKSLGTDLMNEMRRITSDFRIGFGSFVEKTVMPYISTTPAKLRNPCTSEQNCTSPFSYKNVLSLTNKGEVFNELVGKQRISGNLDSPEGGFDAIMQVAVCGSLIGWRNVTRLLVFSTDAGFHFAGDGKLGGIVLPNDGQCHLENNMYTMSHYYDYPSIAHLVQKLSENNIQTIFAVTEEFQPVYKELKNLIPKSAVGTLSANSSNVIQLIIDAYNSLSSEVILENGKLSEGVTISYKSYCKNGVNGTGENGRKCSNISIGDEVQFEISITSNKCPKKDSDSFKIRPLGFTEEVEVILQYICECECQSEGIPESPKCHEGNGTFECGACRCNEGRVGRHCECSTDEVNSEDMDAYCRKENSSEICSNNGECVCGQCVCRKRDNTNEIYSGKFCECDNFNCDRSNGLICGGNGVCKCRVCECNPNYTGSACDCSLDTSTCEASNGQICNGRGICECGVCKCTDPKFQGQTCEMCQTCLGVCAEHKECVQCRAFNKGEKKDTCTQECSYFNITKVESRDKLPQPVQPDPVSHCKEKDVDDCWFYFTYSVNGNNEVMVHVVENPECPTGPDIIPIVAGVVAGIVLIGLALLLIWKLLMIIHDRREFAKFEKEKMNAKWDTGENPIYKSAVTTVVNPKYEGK
T3 sequence (P08648 42-894 limits assumed): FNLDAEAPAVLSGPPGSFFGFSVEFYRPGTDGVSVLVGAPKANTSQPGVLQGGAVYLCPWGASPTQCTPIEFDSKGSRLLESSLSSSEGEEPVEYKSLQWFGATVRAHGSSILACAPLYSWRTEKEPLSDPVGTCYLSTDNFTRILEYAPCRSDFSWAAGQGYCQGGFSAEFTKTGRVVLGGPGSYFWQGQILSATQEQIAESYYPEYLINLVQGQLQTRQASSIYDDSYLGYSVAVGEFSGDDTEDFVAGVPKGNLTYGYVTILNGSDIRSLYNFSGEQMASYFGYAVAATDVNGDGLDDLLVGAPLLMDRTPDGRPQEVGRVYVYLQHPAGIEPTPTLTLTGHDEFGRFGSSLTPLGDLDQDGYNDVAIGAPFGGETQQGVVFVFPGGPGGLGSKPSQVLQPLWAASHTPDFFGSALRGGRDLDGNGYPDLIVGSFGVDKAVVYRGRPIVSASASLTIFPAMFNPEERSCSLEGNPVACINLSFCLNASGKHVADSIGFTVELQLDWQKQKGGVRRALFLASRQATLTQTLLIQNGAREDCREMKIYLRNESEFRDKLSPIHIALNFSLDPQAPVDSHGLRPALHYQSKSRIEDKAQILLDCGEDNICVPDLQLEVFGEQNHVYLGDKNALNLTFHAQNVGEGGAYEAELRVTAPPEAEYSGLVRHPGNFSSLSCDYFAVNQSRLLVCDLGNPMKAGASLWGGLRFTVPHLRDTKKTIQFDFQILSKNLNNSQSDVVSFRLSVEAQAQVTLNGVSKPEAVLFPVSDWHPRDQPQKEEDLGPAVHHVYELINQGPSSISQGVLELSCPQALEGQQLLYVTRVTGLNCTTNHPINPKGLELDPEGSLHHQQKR
T3 sequence (P08648 895-1049 limits assumed): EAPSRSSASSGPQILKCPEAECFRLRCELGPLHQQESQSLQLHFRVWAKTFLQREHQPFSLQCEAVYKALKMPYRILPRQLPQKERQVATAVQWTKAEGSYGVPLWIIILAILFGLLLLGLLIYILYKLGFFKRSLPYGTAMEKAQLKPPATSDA
Sequence of Matrix metalloproteinase-9 (P14780 whole entry): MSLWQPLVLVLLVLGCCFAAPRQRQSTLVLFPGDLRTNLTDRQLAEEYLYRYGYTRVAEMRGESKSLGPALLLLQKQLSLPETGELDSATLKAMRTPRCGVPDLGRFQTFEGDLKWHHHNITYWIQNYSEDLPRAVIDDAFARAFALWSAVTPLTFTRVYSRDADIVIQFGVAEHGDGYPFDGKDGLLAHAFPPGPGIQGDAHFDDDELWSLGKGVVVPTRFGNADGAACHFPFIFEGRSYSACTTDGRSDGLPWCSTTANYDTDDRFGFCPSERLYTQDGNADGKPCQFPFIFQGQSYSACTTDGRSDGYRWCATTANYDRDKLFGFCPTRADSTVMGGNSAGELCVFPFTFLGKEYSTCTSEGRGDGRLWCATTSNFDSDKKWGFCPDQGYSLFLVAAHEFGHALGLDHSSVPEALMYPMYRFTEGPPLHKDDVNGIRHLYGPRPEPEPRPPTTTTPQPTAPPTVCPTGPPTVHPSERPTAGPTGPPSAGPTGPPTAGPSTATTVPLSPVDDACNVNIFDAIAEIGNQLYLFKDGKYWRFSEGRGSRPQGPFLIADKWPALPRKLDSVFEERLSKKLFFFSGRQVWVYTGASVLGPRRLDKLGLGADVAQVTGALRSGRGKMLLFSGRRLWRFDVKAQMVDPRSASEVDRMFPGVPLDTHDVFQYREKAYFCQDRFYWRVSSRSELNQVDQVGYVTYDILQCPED
Sequence of 72 kDa type IV collagenase (P08253 whole entry): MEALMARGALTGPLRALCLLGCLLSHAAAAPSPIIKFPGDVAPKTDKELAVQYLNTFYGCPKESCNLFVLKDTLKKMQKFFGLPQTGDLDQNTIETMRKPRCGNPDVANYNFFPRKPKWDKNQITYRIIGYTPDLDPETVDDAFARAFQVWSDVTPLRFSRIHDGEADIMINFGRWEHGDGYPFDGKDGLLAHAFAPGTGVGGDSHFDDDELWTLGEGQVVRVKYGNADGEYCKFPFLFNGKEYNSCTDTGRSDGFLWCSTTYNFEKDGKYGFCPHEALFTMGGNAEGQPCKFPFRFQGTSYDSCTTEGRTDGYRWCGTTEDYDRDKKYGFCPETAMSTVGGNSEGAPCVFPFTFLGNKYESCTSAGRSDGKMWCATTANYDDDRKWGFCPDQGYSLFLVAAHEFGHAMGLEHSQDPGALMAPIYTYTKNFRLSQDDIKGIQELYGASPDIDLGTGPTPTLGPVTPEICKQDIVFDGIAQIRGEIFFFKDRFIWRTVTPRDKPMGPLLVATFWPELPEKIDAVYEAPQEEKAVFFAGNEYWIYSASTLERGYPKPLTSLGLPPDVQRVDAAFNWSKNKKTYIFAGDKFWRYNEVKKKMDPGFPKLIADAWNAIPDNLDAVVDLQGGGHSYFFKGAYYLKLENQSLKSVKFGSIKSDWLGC

O=C(O)c1ccccc1C(=O)c1ccc(F)cc1
IC50 (Prothrombin): Not Active | IC50 [1]: Not Active | IC50 (HeLa [2]): Not Active | IC50 (HT-1080 [3]): Not Active | IC50 [4]: Not Active | IC50 (Coagulation factor X): Not Active | IC50 (Heparanase [5]): Not Active | IC50 (Serine protease 1): Not Active | IC50 (Collagenase ColA): Not Active

CC(=O)OC(=O)c1ccccc1C(=O)c1ccc(F)c([N+](=O)[O-])c1
IC50 (Prothrombin): Not Active | IC50 [1]: Not Active | IC50 (Integrin alpha-5/beta-1 [6]): 16 µM | IC50 (HT-1080 [7]): 2 µM | IC50 [4]: Not Active | IC50 (HT-1080 [8]): 43 µM | IC50 (Coagulation factor X): Not Active | IC50 (Heparanase [5]): Not Active | IC50 (HT-1080 [9]): 10 µM | IC50 (Serine protease 1): Not Active | IC50 (HT-1080 [10]): 2 µM | Inhibition (HT-1080 [11]): 89% | IC50 (HT-1080 [12]): 17 µM | Inhibition (HeLa [13]): 85% | IC50 (HT-1080 [14]): 5 µM | IC50 (Collagenase ColA): Not Active | IC50 (Integrin alpha-5/beta-1 [15]): 8 µM | IC50 (Integrin alpha-5/beta-1 [16]): 7 µM

O=C(O)c1ccccc1C(=O)c1ccc(F)c([N+](=O)[O-])c1
IC50 (Prothrombin): Not Active | IC50 [1]: Not Active | IC50 (HeLa [2]): Not Active | IC50 (HT-1080 [3]): Not Active | IC50 [4]: Not Active | IC50 (Coagulation factor X): Not Active | IC50 (Heparanase [5]): Not Active | IC50 (Serine protease 1): Not Active | IC50 (Collagenase ColA): Not Active

CCNc1ccc(C(=O)c2ccccc2C(=O)O)cc1[N+](=O)[O-]
IC50 (Prothrombin): Not Active | IC50 [1]: Not Active | IC50 (HeLa [2]): Not Active | IC50 (HT-1080 [3]): Not Active | IC50 [4]: Not Active | IC50 (Coagulation factor X): Not Active | IC50 (Heparanase [5]): Not Active | IC50 (Serine protease 1): Not Active | IC50 (Collagenase ColA): Not Active

CCOc1ccc(C(=O)c2ccccc2C(=O)O)cc1[N+](=O)[O-]
IC50 (Prothrombin): Not Active | IC50 [1]: Not Active | IC50 (HeLa [2]): Not Active | IC50 (HT-1080 [3]): Not Active | IC50 [4]: Not Active | IC50 (Coagulation factor X): Not Active | IC50 (Heparanase [5]): Not Active | IC50 (Serine protease 1): Not Active | IC50 (Collagenase ColA): Not Active

O=C(O)c1ccccc1C(=O)c1ccc(Sc2ccccc2)c([N+](=O)[O-])c1
IC50 (Prothrombin): Not Active | IC50 [1]: Not Active | IC50 (HeLa [2]): Not Active | IC50 (HT-1080 [3]): Not Active | IC50 [4]: Not Active | IC50 (Coagulation factor X): Not Active | IC50 (Heparanase [5]): Not Active | IC50 (Heparanase [17]): 300 µM | IC50 (Serine protease 1): Not Active | IC50 (Collagenase ColA): Not Active

O=C(O)c1ccccc1C(=O)c1ccc(Oc2ccccc2)c([N+](=O)[O-])c1
IC50 (Prothrombin): Not Active | IC50 [1]: Not Active | IC50 (HeLa [2]): Not Active | IC50 (HT-1080 [3]): Not Active | IC50 [4]: Not Active | IC50 (Coagulation factor X): Not Active | IC50 (Heparanase [5]): Not Active | IC50 (Serine protease 1): Not Active | IC50 (Collagenase ColA): Not Active

O=C(O)c1ccc(Sc2ccc(C(=O)c3ccccc3C(=O)O)cc2[N+](=O)[O-])cc1
IC50 (Prothrombin): Not Active | IC50 [1]: Not Active | IC50 (HeLa [2]): Not Active | IC50 (HT-1080 [3]): Not Active | IC50 [4]: Not Active | IC50 (Coagulation factor X): Not Active | IC50 (Heparanase [5]): Not Active | IC50 (Serine protease 1): Not Active | IC50 (Collagenase ColA): Not Active

O=C(O)CC(Sc1ccc(C(=O)c2ccccc2C(=O)O)cc1[N+](=O)[O-])C(=O)O (stereo not drawn)
IC50 (Prothrombin): Not Active | IC50 [1]: Not Active | IC50 (HeLa [2]): Not Active | IC50 (HT-1080 [3]): Not Active | IC50 [4]: Not Active | IC50 (Coagulation factor X): Not Active | IC50 (Heparanase [5]): Not Active | IC50 (Serine protease 1): Not Active | IC50 (Collagenase ColA): Not Active

CCSc1ccc(C(=O)c2ccccc2C(=O)O)cc1[N+](=O)[O-]
IC50 (Prothrombin): Not Active | IC50 [1]: Not Active | IC50 (HeLa [2]): Not Active | IC50 (HT-1080 [3]): Not Active | IC50 [4]: Not Active | IC50 (Coagulation factor X): Not Active | IC50 (Heparanase [5]): Not Active | IC50 (Serine protease 1): Not Active | IC50 (Collagenase ColA): Not Active

O=C(O)c1ccccc1C(=O)c1ccc(NC2CCCCC2)c([N+](=O)[O-])c1
IC50 (Prothrombin): Not Active | IC50 [1]: Not Active | IC50 (HeLa [2]): Not Active | IC50 (HT-1080 [3]): Not Active | IC50 [4]: Not Active | IC50 (Coagulation factor X): Not Active | IC50 (Heparanase [5]): Not Active | IC50 (Serine protease 1): Not Active | IC50 (Collagenase ColA): Not Active

CC(=O)OC(=O)c1ccccc1C(=O)c1ccc(Sc2ccccc2)c([N+](=O)[O-])c1
IC50 (Prothrombin): Not Active | IC50 [1]: Not Active | IC50 (HeLa [2]): Not Active | IC50 (HT-1080 [3]): Not Active | IC50 [4]: Not Active | IC50 (Coagulation factor X): Not Active | IC50 (Heparanase [5]): Not Active | IC50 (Serine protease 1): Not Active | IC50 (Collagenase ColA): Not Active
